Data set [1] deals with T1, Alpha-1A adrenergic receptor (Rattus norvegicus, UniProt P43140).
T1 sequence (P43140 whole entry): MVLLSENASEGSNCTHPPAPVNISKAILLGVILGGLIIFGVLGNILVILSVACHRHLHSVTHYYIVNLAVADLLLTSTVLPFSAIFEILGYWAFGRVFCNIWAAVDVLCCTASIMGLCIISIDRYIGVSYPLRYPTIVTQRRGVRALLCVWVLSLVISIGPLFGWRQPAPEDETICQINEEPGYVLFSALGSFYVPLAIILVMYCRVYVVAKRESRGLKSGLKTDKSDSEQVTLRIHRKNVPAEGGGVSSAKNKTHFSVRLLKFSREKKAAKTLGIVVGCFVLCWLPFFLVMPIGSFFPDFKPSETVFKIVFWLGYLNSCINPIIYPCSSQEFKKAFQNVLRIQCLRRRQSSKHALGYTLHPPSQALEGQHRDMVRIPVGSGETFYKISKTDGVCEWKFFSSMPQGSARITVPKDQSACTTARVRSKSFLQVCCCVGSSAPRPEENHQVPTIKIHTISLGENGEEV
Nature of the data set: DRUGMATRIX: Alpha-1A adrenergic receptor radioligand binding (ligand: prazosin). To be noted: Not Active = under 50% inhibition at 10 µM. In kind it is cell membranes, Wistar, Submaxillary gland, Membrane.

In another data set the target is Cytochrome P450 3A4 (Homo sapiens, UniProt P08684). The following applies: bti-tn-5b1-4. Note: in other assays of this panel Not Active means under 50% inhibition at 10 µM.
In the next data set the target is T2, Progesterone receptor (Bos taurus, UniProt Q690N0).
T2 sequence (Q690N0 whole entry): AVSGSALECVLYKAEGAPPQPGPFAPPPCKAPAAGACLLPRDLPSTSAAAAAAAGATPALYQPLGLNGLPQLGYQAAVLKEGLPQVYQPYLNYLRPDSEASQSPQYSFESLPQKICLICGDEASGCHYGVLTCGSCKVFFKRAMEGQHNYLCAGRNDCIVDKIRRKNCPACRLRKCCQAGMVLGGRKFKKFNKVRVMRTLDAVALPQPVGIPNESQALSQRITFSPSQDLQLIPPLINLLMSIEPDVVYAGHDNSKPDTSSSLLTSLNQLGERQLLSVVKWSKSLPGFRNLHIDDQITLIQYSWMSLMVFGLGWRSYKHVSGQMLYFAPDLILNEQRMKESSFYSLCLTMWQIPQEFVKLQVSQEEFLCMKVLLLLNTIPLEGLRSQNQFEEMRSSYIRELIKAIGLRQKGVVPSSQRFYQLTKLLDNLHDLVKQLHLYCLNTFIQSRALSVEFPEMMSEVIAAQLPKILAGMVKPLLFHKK
Nature of the data set: DRUGMATRIX: Progesterone radioligand binding (ligand: [3H] R-5020). In kind it is tissue-based, Uterus. To be noted: Not Active = under 50% inhibition at 10 µM; for pIC50: read-out: IC50; for pKi: read-out: Ki.

Data set [2] addresses T3, Alpha-1D adrenergic receptor (Homo sapiens, UniProt P25100).
T3 sequence (P25100 whole entry): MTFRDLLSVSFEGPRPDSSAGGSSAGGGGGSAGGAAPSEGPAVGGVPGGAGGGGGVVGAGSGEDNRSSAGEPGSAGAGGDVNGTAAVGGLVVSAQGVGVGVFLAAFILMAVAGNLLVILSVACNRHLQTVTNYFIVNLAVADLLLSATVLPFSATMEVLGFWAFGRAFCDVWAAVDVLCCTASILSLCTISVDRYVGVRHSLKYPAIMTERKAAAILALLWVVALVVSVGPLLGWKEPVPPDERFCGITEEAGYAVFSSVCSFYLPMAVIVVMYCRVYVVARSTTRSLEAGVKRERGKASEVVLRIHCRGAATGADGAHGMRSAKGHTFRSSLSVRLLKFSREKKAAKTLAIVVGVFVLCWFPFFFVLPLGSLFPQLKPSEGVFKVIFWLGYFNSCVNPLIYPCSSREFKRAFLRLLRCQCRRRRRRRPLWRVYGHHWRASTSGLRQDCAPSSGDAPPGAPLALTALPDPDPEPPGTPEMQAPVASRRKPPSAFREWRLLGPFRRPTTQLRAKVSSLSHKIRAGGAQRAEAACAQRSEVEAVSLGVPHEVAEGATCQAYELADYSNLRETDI
In kind it is cell membranes, HEK293, Membrane. To be noted: hek293.

In data set [3] the target is T4, C-X-C chemokine receptor type 1 (Homo sapiens, UniProt P25024). Note: in other assays of this panel Not Active means under 50% inhibition at 10 µM.
T4 sequence (P25024 whole entry): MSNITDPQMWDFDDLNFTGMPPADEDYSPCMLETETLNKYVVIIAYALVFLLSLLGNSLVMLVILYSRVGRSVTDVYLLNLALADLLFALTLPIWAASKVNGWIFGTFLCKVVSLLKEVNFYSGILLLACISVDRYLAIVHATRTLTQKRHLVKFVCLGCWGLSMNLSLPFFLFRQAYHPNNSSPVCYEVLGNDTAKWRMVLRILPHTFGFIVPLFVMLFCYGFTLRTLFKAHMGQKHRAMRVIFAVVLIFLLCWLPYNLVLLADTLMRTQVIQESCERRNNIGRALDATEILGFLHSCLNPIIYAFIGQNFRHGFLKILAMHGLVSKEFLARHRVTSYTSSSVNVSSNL

The nature of data set [4]: DRUGMATRIX: Platelet-Derived Growth Factor (PDGF) radioligand binding (ligand: [125I] PDGF). To be noted: nih3t3; Not Active = under 50% inhibition at 10 µM. In kind it is cell-based.
Data set [5] has as its target Protein kinase C alpha type (Homo sapiens, UniProt P17252). In kind it is cell-based. The following applies: sf9.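 Note: inhibition of PKCalpha kinase activity measured in an enzyme assay with histone as the phosphorylation substrate; in other assays of this panel Not Active means under 50% inhibition at 10 µM.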

The structures appear in SMILES notation. pIC50, pKi: −log10 of the molar value.

Sequence of Cytochrome P450 3A4 (P08684 whole entry): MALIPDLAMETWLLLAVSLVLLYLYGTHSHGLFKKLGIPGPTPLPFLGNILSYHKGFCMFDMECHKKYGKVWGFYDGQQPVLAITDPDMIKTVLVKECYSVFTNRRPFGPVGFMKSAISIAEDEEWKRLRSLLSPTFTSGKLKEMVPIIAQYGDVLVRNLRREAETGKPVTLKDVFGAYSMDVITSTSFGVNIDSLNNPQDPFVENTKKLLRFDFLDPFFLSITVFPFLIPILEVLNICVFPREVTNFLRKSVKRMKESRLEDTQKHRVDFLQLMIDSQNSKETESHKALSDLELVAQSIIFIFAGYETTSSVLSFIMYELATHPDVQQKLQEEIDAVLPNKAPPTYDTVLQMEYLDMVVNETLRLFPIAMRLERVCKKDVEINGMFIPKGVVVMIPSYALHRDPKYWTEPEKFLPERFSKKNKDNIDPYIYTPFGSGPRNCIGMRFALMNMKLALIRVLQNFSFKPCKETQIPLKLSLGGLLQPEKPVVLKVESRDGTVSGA

Regarding `CCC(=O)O[C@H]1[C@H](O[C@@H]2[C@@H](C)[C@H](O[C@H]3C[C@@](C)(OC)[C@@H](O)[C@H](C)O3)[C@@H](C)C(=O)O[C@H](CC)[C@@](C)(O)[C@H](O)[C@@H](C)C(=O)[C@H](C)C[C@@]2(C)O)O[C@H](C)C[C@@H]1N(C)C` [ERYTHROMYCIN PROPIONATE], the IC50 entry (in data set [1]; against Cytochrome P450 3A4; on Progesterone receptor; in data set [2]; in data set [3]; in data set [4]) was “Not Active” each time. The IC50 entry in data set [5] is listed as “Not Active”. Moreover, the Ki entry (on Cytochrome P450 3A4; in data set [4]) was “Not Active” each time.

As to `C=C(CC)C(=O)c1ccc(OCC(=O)O)c(Cl)c1Cl` [ETHACRYNIC ACID], the IC50 result (in data set [1]; at Cytochrome P450 3A4; at Progesterone receptor; in data set [2]; in data set [3]; in data set [4]) was “Not Active” in each case. For the same molecule, the IC50 result in data set [5] is given as “Not Active”. Further, the Ki entry (at Cytochrome P450 3A4; in data set [4]) was “Not Active” each time.

For the molecule `C#C[C@]1(O)CC[C@H]2[C@@H]3CCc4cc(O)ccc4[C@H]3CC[C@@]21C` [ETHINYL ESTRADIOL], the IC50 entry (in data set [1]; at Cytochrome P450 3A4; in data set [2]; in data set [3]; in data set [4]; in data set [5]) was “Not Active” throughout. For the same molecule, the Ki result (at Cytochrome P450 3A4; in data set [4]) was “Not Active” each time. On Progesterone receptor, the negative-log IC50 (pIC50) was 5.97. Besides, the pKi on Progesterone receptor was 6.86.

With `OCCO` [ETHYLENE GLYCOL], the IC50 result (in data set [1]; on Cytochrome P450 3A4; at Progesterone receptor; in data set [2]; in data set [3]; in data set [4]) was “Not Active” each time. Also, the IC50 entry in data set [5] was “Not Active”. Besides, the Ki entry (at Cytochrome P450 3A4; in data set [4]) was “Not Active” throughout.

In the case of `CC(=O)OCC(CCn1cnc2cnc(N)nc21)COC(C)=O` [FAMCICLOVIR], the IC50 result (in data set [1]; against Cytochrome P450 3A4; at Progesterone receptor; in data set [2]; in data set [3]; in data set [4]) was “Not Active” in each case. The IC50 entry in data set [5] is on record as “Not Active”. Moreover, the Ki result (at Cytochrome P450 3A4; in data set [4]) was “Not Active” in each case.

As for `O=C(O)Cc1ccc(-c2ccccc2)cc1` [FELBINAC], the IC50 result (in data set [1]; against Cytochrome P450 3A4; on Progesterone receptor; in data set [2]; in data set [3]; in data set [4]) was “Not Active” throughout. Moreover, the IC50 result in data set [5] is “Not Active”. Also, the Ki entry (on Cytochrome P450 3A4; in data set [4]) was “Not Active” in each case.

Take `NC[C@@H]1O[C@H](O[C@H]2[C@@H](O)[C@H](O[C@@H]3[C@@H](O)[C@H](N)C[C@H](N)[C@H]3O[C@H]3O[C@H](CN)[C@@H](O)[C@H](O)[C@H]3N)O[C@@H]2CO)[C@H](N)[C@@H](O)[C@@H]1O` [FRAMYCETIN]: the IC50 entry (in data set [1]; against Cytochrome P450 3A4; at Progesterone receptor; in data set [2]; in data set [3]; in data set [4]) was “Not Active” in each case. Moreover, the IC50 entry in data set [5] is listed as “Not Active”. In addition, the Ki result (at Cytochrome P450 3A4; in data set [4]) was “Not Active” each time.

`C[C@H]([C@](O)(Cn1cncn1)c1ccc(F)cc1F)S(C)(=O)=O` [GENACONAZOLE]: the IC50 result (in data set [1]; at Cytochrome P450 3A4; at Progesterone receptor; in data set [2]; in data set [3]; in data set [4]) was “Not Active” each time. Also, the IC50 result in data set [5] is “Not Active”. Besides, the Ki result (on Cytochrome P450 3A4; in data set [4]) was “Not Active” in each case.

`Cc1c(F)c(N2CCNC(C)C2)cc2c1c(=O)c(C(=O)O)cn2C1CC1` (stereo not drawn) [GREPAFLOXACIN]: the IC50 result (in data set [1]; on Cytochrome P450 3A4; on Progesterone receptor; in data set [2]; in data set [3]; in data set [4]) was “Not Active” in each case. The IC50 result in data set [5] is on record as “Not Active”. Further, the Ki entry (at Cytochrome P450 3A4; in data set [4]) was “Not Active” each time.

With `C[C@]12CCC(=O)C=C1CC[C@@H]1[C@@H]2[C@@H](O)C[C@@]2(C)[C@H]1CC[C@]2(O)C(=O)CO` [HYDROCORTISONE], the IC50 result (in data set [1]; at Cytochrome P450 3A4; on Progesterone receptor; in data set [2]; in data set [3]; in data set [4]) was “Not Active” each time. For the same molecule, in data set [5], the IC50 result is listed as “Not Active”. Further, the Ki entry (at Cytochrome P450 3A4; in data set [4]) was “Not Active” throughout.

As to `NC[C@H]1O[C@H](O[C@H]2[C@H](O)[C@@H](O[C@H]3O[C@H](CO)[C@@H](O)[C@H](N)[C@H]3O)[C@H](N)C[C@@H]2N)[C@H](O)[C@@H](O)[C@@H]1O` [KANAMYCIN], the IC50 result (in data set [1]; at Cytochrome P450 3A4; at Progesterone receptor; in data set [2]; in data set [3]; in data set [4]) was “Not Active” each time. Further, in data set [5], the IC50 entry is given as “Not Active”. Besides, the Ki entry (at Cytochrome P450 3A4; in data set [4]) was “Not Active” throughout.

For `CC(C(=O)O)c1ccc(CC2CCCC2=O)cc1` (stereo not drawn) [LOXOPROFEN], the IC50 entry (in data set [1]; on Cytochrome P450 3A4; at Progesterone receptor; in data set [2]; in data set [3]; in data set [4]) was “Not Active” in each case. In data set [5], the IC50 result is on record as “Not Active”. The Ki result (on Cytochrome P450 3A4; in data set [4]) was “Not Active” each time.

In the case of `Cc1cccc(Nc2ccccc2C(=O)O)c1C` [MEFENAMIC ACID], the IC50 entry (in data set [1]; on Cytochrome P450 3A4; at Progesterone receptor; in data set [2]; in data set [3]; in data set [4]) was “Not Active” each time. The IC50 result in data set [5] is listed as “Not Active”. In addition, the Ki result (at Cytochrome P450 3A4; in data set [4]) was “Not Active” in each case.

In the case of `CC(=O)O[C@]1(C(C)=O)CC[C@H]2[C@@H]3C=C(C)C4=CC(=O)CC[C@]4(C)[C@H]3CC[C@@]21C` [MEGESTROL ACETATE], the IC50 result (in data set [1]; on Cytochrome P450 3A4; in data set [2]; in data set [3]; in data set [4]; in data set [5]) was “Not Active” each time. The Ki entry (on Cytochrome P450 3A4; in data set [4]) was “Not Active” throughout. Also, the pIC50 at Progesterone receptor was 7.96. Besides, the negative logarithm of the Ki (pKi) at Progesterone receptor was 8.84.

The values above are taken from ChEMBL document CHEMBL1909046, “DrugMatrix in vitro pharmacology data”.
